This note sets out measurements from USRE46792E1, “Oxazole compound and pharmaceutical composition” (Otsuka Pharmaceutical Co., Ltd., priority 2005, dated 2018).

Broadly, the IC50 is the midpoint of a concentration-inhibition curve.

Sequence of human PDE4D3 (PDE4D) (Q08499 other isoform, or with tags, fused parts or gaps): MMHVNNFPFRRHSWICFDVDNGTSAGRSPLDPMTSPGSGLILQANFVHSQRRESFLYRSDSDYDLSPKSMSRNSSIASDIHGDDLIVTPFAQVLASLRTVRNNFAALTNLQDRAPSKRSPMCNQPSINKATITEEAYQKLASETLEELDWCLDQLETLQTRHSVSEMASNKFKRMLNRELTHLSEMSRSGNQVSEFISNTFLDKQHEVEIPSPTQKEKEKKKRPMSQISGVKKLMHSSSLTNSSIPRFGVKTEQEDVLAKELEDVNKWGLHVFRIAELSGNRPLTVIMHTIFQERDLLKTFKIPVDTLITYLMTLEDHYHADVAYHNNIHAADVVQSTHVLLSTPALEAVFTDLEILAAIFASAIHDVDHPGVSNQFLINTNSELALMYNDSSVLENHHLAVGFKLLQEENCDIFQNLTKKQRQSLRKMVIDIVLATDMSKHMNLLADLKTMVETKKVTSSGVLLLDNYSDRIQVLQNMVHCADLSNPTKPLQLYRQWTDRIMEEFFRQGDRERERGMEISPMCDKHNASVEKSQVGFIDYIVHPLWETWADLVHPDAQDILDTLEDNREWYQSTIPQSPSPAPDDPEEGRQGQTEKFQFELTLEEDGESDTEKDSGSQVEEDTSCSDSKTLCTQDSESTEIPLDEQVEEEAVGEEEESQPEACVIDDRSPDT

The target in the experiment is human PDE4D3 (PDE4D) (Homo sapiens (Human), UniProt Q08499). The experiment can be described thus: Phosphodiesterase (PDE)4 inhibitory activity evaluation test ([3H]cAMP hydrolysis by PDE4D enzyme solution). The class given is biochemical. The conditions noted are these: recombinant human PDE4D3 expressed in COS-7 cells; [3H]cAMP substrate; 10 min at 30° C.; 2% DMSO. The source says:
Phosphodiesterase (PDE)4 Inhibitory Activity Evaluation Test
(1) Large Scale Plasmid Preparation
Plasmid containing genes (HPDE4D) coding for human PDE4D3 cDNA (stored in Otsuka America Pharmaceutical, Inc., Maryland Research Laboratories) was transformed in E. coli, cultured on a large scale, and purified using an EndoFree™ Plasmid Maxi Kit (Qiagen).
(2) Abundant Expression and Purification of PDE4D
COS-7 cells derived from African green monkey kidneys were passage cultured in D-MEM media containing 100 units/ml penicillin, 100 μg/ml streptomycin, and 10% FBS. The cells were transfected with the plasmid prepared in (1) above using Lipofectamine™ 2000 (hereinafter referred to as “LF2000”, Invitrogen), following the manufacturer's protocol. The COS-7 cells were inoculated in a 10 cm culture dish on the previous day so as to be 90% confluent on the day of transfection. Culture dishes each containing a plasmid solution (solution A) in which 24 μg of plasmid was diluted in 1.5 ml Opti-MEM I Reduced Serum Medium (Invitrogen) and an LF2000 solution (solution B) in which 60 μl of LF2000 was diluted in 1.5 ml Opti-MEM I Reduced Serum Medium were separately allowed to stand for 5 minutes at room temperature. Solutions A and B were then mixed and the mixture was allowed to stand for 20 minutes at room temperature. The mixture was added to the cultured cells, and incubated at 37° C. (5% CO2) overnight. On the following day, the medium was replaced, and the mixture was further incubated overnight to harvest the cells in the following manner. The cells were washed with PBS (Sigma) once, and 10 ml of a Trypsin-EDTA solution (Sigma) was added to each culture dish. After the solution was distributed to each of the culture dishes, the cells were detached, and the dishes were allowed to stand for about 5 minutes at 37° C. The detached cells from the dishes were suspended in media, collected into centrifuge tubes, and centrifuged at 1200 rpm for 5 minutes at 4° C., and supernatants were removed. The cells were further washed with PBS, and stored at −80° C. KHEM buffer (100 mM Hepes, 50 mM KCl, 10 mM EGTA, 1.92 mM MgCl2, pH 7.4) containing 1 mM DTT, 1 μg/ml antipain, 1 μg/ml aprotinin, 1 μg/ml leupeptin, 1 μg/ml pepstatin A, 157 μg/ml benzamidine, and 120 μg/ml Pefabloc SC was added to the stored cells, and the contents were moved to a glass homogenizer to be homogenized on ice. The cell suspension was centrifuged at 1000 rpm for 5 minutes at 4° C., and the supernatant was further centrifuged at 14000 rpm for one hour. After centrifugation, the supernatant was dispensed into new tubes as PDE4D enzyme solutions, and stored in a deep freezer.
(3) Determination on Dilution Ratio of PDE4D Enzyme Solutions
The PDE4D enzyme solutions prepared in (2) above were dissolved in 20 mM Tris-HCl solution (pH 7.4) to give 10-, 25-, 50-, 100-, 200-, 400-, and 800-fold dilutions of the enzyme solutions. PDE4D activities were measured according to (4) below. The percentage of catalyzed cAMP to total cAMP was calculated, and such a dilution, in which the percentage was between 10% and 30%, was adopted in the inhibitory study below.
(4) Measurement of PDE4D Inhibitory Activity
Necessary amounts of test compounds were weighed, and 100% dimethylsulfoxide (DMSO) was added thereto to adjust the concentration to 10 mM. The solutions were stored in a freezer as stock solutions of each test compound. After being thawed when required, the solutions were diluted 20-fold with 100% DMSO to give a 500 μM concentration. Further, 10-fold serial dilutions were made with 100% DMSO to prepare test compounds of different concentrations. 2 μl of solutions containing one of each of the test compound were separately added into 1.2 ml tubes in which 23 μl of 20 mM Tris-HCl (pH 7.4) had been placed beforehand. […]
Turning to `CCOc1cccnc1C(=O)CCc1coc(-c2ccc(OC)c(OC3CCCC3)c2)n1` [Example 132, 3-[2-(3-cyclopentyloxy-4-methoxyphenyl)oxazol-4-yl]-1-(3-ethoxypyridin-2-yl)propan-1-one], the half-maximal inhibitory concentration (IC50) is < 50 nM. As to `CCOc1cc(-c2nc(CCC(=O)c3ccc(F)cc3OCC)co2)ccc1OC` [Example 304, 1-(2-ethoxy-4-fluorophenyl)-3-[2-(3-ethoxy-4-methoxyphenyl)oxazol-4-yl]propan-1-one], the IC50 is < 50 nM.

`CCOc1cc(-c2nc(CCC(=O)c3ccccc3OC)co2)ccc1OC` [Example 172, 3-[2-(3-ethoxy-4-methoxyphenyl)oxazol-4-yl]-1-(2-methoxyphenyl)propan-1-one]: the IC50 is < 50 nM. The value for `COc1ccc(-c2nc(CCC(=O)c3ncccc3C)co2)cc1OCC1CCC1` [Example 141, 3-[2-(3-cyclobutylmethoxy-4-methoxyphenyl)oxazol-4-yl]-1-(3-methylpyridin-2-yl)propan-1-one] was < 50 nM; that for `CCC(CC)Oc1cc(-c2nc(CCC(=O)c3ncccc3C)co2)ccc1OC` [Example 312, 3-{2-[3-(1-ethylpropoxy)-4-methoxyphenyl]oxazol-4-yl}-1-(3-methylpyridin-2-yl)propan-1-one] was < 50 nM; that for `COc1ccc(-c2nc(CCC(=O)c3ccccc3OC)co2)cc1OC(C)C` [Example 169, 3-[2-(3-isopropoxy-4-methoxyphenyl)oxazol-4-yl]-1-(2-methoxyphenyl)propan-1-one] was < 50 nM. Regarding `C=CCOc1cc(-c2nc(CNC(=O)c3ccccc3OCC)co2)ccc1OC(F)F` [Example 351, N-[2-(3-allyloxy-4-difluoromethoxyphenyl)oxazol-4-ylmethyl]-2-ethoxybenzamide], the IC50 is < 50 nM. Then `C=CCCOc1cc(-c2nc(CNC(=O)c3ncccc3C)co2)ccc1OC(F)F` [Example 343, N-[2-(3-but-3-enyloxy-4-difluoromethoxyphenyl)oxazol-4-ylmethyl]-3-methylpicolinamide], with < 50 nM; and `CCCOc1cc(-c2nc(CNC(=O)c3ccccc3OCC)co2)ccc1OC(F)F` [Example 350, N-[2-(4-difluoromethoxy-3-propoxyphenyl)oxazol-4-ylmethyl]-2-ethoxybenzamide], with < 50 nM; and `COc1ccc(-c2nc(CCC(=O)c3ccccc3OC(C)C)co2)cc1OCC1CC1` [Example 208, 3-[2-(3-cyclopropylmethoxy-4-methoxyphenyl)oxazol-4-yl]-1-(2-isopropoxyphenyl)propan-1-one], with < 50 nM. As for `CCOc1cc(-c2nc(CCC(=O)c3ccccc3OCC)co2)ccc1OC` [Example 103, 3-[2-(3-ethoxy-4-methoxyphenyl)oxazol-4-yl]-1-(2-ethoxyphenyl)propan-1-one], the IC50 was < 50 nM.

Regarding `CCOc1cccnc1C(=O)NCc1coc(-c2ccc(OC)c(OC3CCCC3)c2)n1` [Example 29, N-[2-(3-cyclopentyloxy-4-methoxyphenyl)oxazol-4-ylmethyl]-3-ethoxypicolinamide], the IC50 is < 50 nM. Then `CCOc1ccccc1C(=O)NCc1coc(-c2ccc(OC(F)F)c(OC(C)C)c2)n1` [Example 352, N-[2-(4-difluoromethoxy-3-isopropoxyphenyl)oxazol-4-ylmethyl]-2-ethoxybenzamide], with < 50 nM; and `CCCOc1cc(-c2nc(CCC(=O)c3ncccc3C)co2)ccc1OC` [Example 143, 3-[2-(4-methoxy-3-propoxyphenyl)oxazol-4-yl]-1-(3-methylpyridin-2-yl)propan-1-one], with < 50 nM; and `COc1ccc(-c2nc(CCC(=O)c3ccccc3OCC(F)F)co2)cc1OCC1CC1` [Example 283, 3-[2-(3-cyclopropylmethoxy-4-methoxyphenyl)oxazol-4-yl]-1-[2-(2,2-difluoroethoxy)phenyl]propan-1-one], with < 50 nM. As for `COc1ccc(-c2nc(CCC(=O)c3ncccc3C)co2)cc1OCC(F)F` [Example 309, 3-{2-[3-(2,2-difluoroethoxy)-4-methoxyphenyl]oxazol-4-yl}-1-(3-methylpyridin-2-yl)propan-1-one], the IC50 is < 50 nM. The value for `C=CCCOc1cc(-c2nc(CCC(=O)c3ccccc3OCC)co2)ccc1OC(F)F` [Example 337, 3-[2-(3-but-3-enyloxy-4-difluoromethoxyphenyl)oxazol-4-yl]-1-(2-ethoxyphenyl)propan-1-one] was < 50 nM. Regarding `COc1ccc(-c2nc(CCC(=O)c3ccccc3OCC(F)F)co2)cc1OCC(C)C` [Example 285, 1-[2-(2,2-difluoroethoxy)phenyl]-3-[2-(3-isobutoxy-4-methoxyphenyl)oxazol-4-yl]-propan-1-one], the IC50 is < 50 nM. The value for `COc1ccc(-c2nc(CNC(=O)c3ccccc3OCC(F)(F)F)co2)cc1OCC1CC1` [Example 32, N-[2-(3-cyclopropylmethoxy-4-methoxyphenyl)oxazol-4-ylmethyl]-2-(2,2,2-trifluoroethoxy)benzamide] was < 50 nM. The value for `CCOc1ccccc1C(=O)NCc1coc(-c2ccc(OC)c(OCC(C)C)c2)n1` [Example 14, N-[2-(3-isobutoxy-4-methoxyphenyl)oxazol-4-ylmethyl]-2-ethoxy benzamide] was < 50 nM. Then `C=CCOc1cc(-c2nc(CCC(=O)c3ncccc3C)co2)ccc1OC(F)F` [Example 330, 3-[2-(3-allyloxy-4-difluoromethoxyphenyl)oxazol-4-yl]-1-(3-methylpyridin-2-yl)propan-1-one], with < 50 nM. Turning to `Cc1cccnc1C(=O)NCc1coc(-c2ccc(OC(F)F)c(OCC(C)C)c2)n1` [Example 344, N-[2-(4-difluoromethoxy-3-isobutoxyphenyl)oxazol-4-ylmethyl]-3-methylpicolinamide], the IC50 is < 50 nM.

In the case of `C=CCOc1cc(-c2nc(CCC(=O)c3ccccc3OCC)co2)ccc1OC` [Example 104, 3-[2-(3-allyloxy-4-methoxyphenyl)oxazol-4-yl]-1-(2-ethoxyphenyl)propan-1-one], the IC50 was < 50 nM. Consider `CCOc1cc(-c2nc(CNC(=O)c3ncccc3C)co2)ccc1OC(F)F` [Example 338, N-[2-(4-difluoromethoxy-3-ethoxyphenyl)-oxazol-4-ylmethyl]-3-methylpicolinamide], for which the IC50 was < 50 nM.

For `COc1ccc(-c2nc(CCC(=O)c3ncccc3C)co2)cc1OC1Cc2ccccc2C1` [Example 159, 3-{2-[3-(indan-2-yloxy)-4-methoxyphenyl]oxazol-4-yl}-1-(3-methylpyridin-2-yl)propan-1-one], the IC50 is < 50 nM.

For the molecule `COc1ccc(-c2nc(CNC(=O)c3ncccc3C)co2)cc1OC(C)C` [Example 384, N-[2-(4-methoxy-3-isopropoxyphenyl)oxazol-4-ylmethyl]-3-methylpicolinamide], the half-inhibitory concentration (IC50) was < 50 nM. The value for “3-[2-(3-hydroxy-4-methoxyphenyl)oxazol-4-yl]-1-(2-methoxymethoxy phenyl)propan-1-one [Example 232]” was < 50 nM. Consider `CCOc1ccccc1C(=O)CCc1coc(-c2ccc(OC)c(OCCF)c2)n1` [Example 315, 1-(2-ethoxyphenyl)-3-{2-[3-(2-fluoroethoxy)-4-methoxyphenyl]oxazol-4-yl}propan-1-one], for which the IC50 was < 50 nM. The value for `C=CCCOc1cc(-c2nc(CNC(=O)c3ccccc3OCC)co2)ccc1OC(F)F` [Example 354, N-[2-(3-but-3-enyloxy-4-difluoromethoxyphenyl)oxazol-4-ylmethyl]-2-ethoxybenzamide] was < 50 nM.
